Source: ChEMBL document CHEMBL5724914, “Linking interpersonal differences in gut microbiota composition and drug biotransformation activity” (2024)

test: (§1) The drug is tested on Z-029 corresponding to rat gut metagenome with ENA study accession number: PRJEB37062 and ENA sample accession number: ERS12561828 for biotransformation under anaerobic condition. The drug concentrations were measured over 9 timepoints collected between 0 and 24 hours of incubation by liquid-chromatography-coupled mass spectrometry (LC–MS); details: 2 µM
Also: call rule not given here.

| SMILES | Bacterial Biotransformation |
| --- | --- |
| Cc1ccc(S(=O)(=O)NC(=O)NN2CCCCCC2)cc1 [TOLAZAMIDE] | Compound NOT metabolized |
| CN(C)C(=O)C(CCN1CCC(O)(c2ccc(Cl)cc2)CC1)(c1ccccc1)c1ccccc1 [LOPERAMIDE] | Compound NOT metabolized |

test: as §1, with “on Z-018” for “on Z-029”, “to pig” for “to rat”, “number: ERS12561817” for “number: ERS12561828”; details: 2 µM

| SMILES | Bacterial Biotransformation |
| --- | --- |
| Cc1ccc(S(=O)(=O)NC(=O)NN2CCCCCC2)cc1 [TOLAZAMIDE] | Compound metabolized |
| CN(C)C(=O)C(CCN1CCC(O)(c2ccc(Cl)cc2)CC1)(c1ccccc1)c1ccccc1 [LOPERAMIDE] | Compound metabolized |

test: as §1, with “Z-012” for “Z-029”, “to” for “to rat gut”, “ERS12561812” for “ERS12561828”; details: 2 µM

| SMILES | Bacterial Biotransformation |
| --- | --- |
| Cc1ccc(S(=O)(=O)NC(=O)NN2CCCCCC2)cc1 [TOLAZAMIDE] | Compound metabolized |
| CN(C)C(=O)C(CCN1CCC(O)(c2ccc(Cl)cc2)CC1)(c1ccccc1)c1ccccc1 [LOPERAMIDE] | Compound metabolized |

test: as §1, with “Z-007” for “Z-029”, “ERS12561807” for “ERS12561828”; details: 2 µM

| SMILES | Bacterial Biotransformation |
| --- | --- |
| Cc1ccc(S(=O)(=O)NC(=O)NN2CCCCCC2)cc1 [TOLAZAMIDE] | Compound NOT metabolized |
| CN(C)C(=O)C(CCN1CCC(O)(c2ccc(Cl)cc2)CC1)(c1ccccc1)c1ccccc1 [LOPERAMIDE] | Compound NOT metabolized |

test: as §1, with “Z-005” for “Z-029”, “to” for “to rat gut”, “ERS12561805” for “ERS12561828”; details: 2 µM

| SMILES | Bacterial Biotransformation |
| --- | --- |
| Cc1ccc(S(=O)(=O)NC(=O)NN2CCCCCC2)cc1 [TOLAZAMIDE] | Compound metabolized |
| CN(C)C(=O)C(CCN1CCC(O)(c2ccc(Cl)cc2)CC1)(c1ccccc1)c1ccccc1 [LOPERAMIDE] | Compound metabolized |

test: as §1, with “on Z-003” for “on Z-029”, “to pig” for “to rat”, “number: ERS12561803” for “number: ERS12561828”; details: 2 µM

| SMILES | Bacterial Biotransformation |
| --- | --- |
| Cc1ccc(S(=O)(=O)NC(=O)NN2CCCCCC2)cc1 [TOLAZAMIDE] | Compound metabolized |
| CN(C)C(=O)C(CCN1CCC(O)(c2ccc(Cl)cc2)CC1)(c1ccccc1)c1ccccc1 [LOPERAMIDE] | Compound metabolized |

test: as §1, with “on WLS-350” for “on Z-029”, “to human” for “to rat”, “number: ERS12561789” for “number: ERS12561828”; details: 2 µM

| SMILES | Bacterial Biotransformation |
| --- | --- |
| Cc1ccc(S(=O)(=O)NC(=O)NN2CCCCCC2)cc1 [TOLAZAMIDE] | Compound NOT metabolized |
| CN(C)C(=O)C(CCN1CCC(O)(c2ccc(Cl)cc2)CC1)(c1ccccc1)c1ccccc1 [LOPERAMIDE] | Compound metabolized |

test: as §1, with “on WLS-240” for “on Z-029”, “to human” for “to rat”, “number: ERS12561773” for “number: ERS12561828”; details: 2 µM

| SMILES | Bacterial Biotransformation |
| --- | --- |
| Cc1ccc(S(=O)(=O)NC(=O)NN2CCCCCC2)cc1 [TOLAZAMIDE] | Compound metabolized |
| CN(C)C(=O)C(CCN1CCC(O)(c2ccc(Cl)cc2)CC1)(c1ccccc1)c1ccccc1 [LOPERAMIDE] | Compound metabolized |

test: as §1, with “on WLS-082” for “on Z-029”, “to human” for “to rat”, “number: ERS12561751” for “number: ERS12561828”; details: 2 µM

| SMILES | Bacterial Biotransformation |
| --- | --- |
| Cc1ccc(S(=O)(=O)NC(=O)NN2CCCCCC2)cc1 [TOLAZAMIDE] | Compound metabolized |
| CN(C)C(=O)C(CCN1CCC(O)(c2ccc(Cl)cc2)CC1)(c1ccccc1)c1ccccc1 [LOPERAMIDE] | Compound metabolized |

details: human gut metagenome, 24 h, 2 µM

| SMILES | Bacterial Biotransformation |
| --- | --- |
| Cc1ccc(S(=O)(=O)NC(=O)NN2CCCCCC2)cc1 [TOLAZAMIDE] | Compound metabolized |
| CN(C)C(=O)C(CCN1CCC(O)(c2ccc(Cl)cc2)CC1)(c1ccccc1)c1ccccc1 [LOPERAMIDE] | Compound metabolized |

details: human gut metagenome, 24 h, 2 µM; remark: another data set of the same source

| SMILES | Bacterial Biotransformation |
| --- | --- |
| Cc1ccc(S(=O)(=O)NC(=O)NN2CCCCCC2)cc1 [TOLAZAMIDE] | Compound metabolized |
| CN(C)C(=O)C(CCN1CCC(O)(c2ccc(Cl)cc2)CC1)(c1ccccc1)c1ccccc1 [LOPERAMIDE] | Compound metabolized |

details: human gut metagenome, 24 h, 2 µM; remark: another data set of the same source

| SMILES | Bacterial Biotransformation |
| --- | --- |
| Cc1ccc(S(=O)(=O)NC(=O)NN2CCCCCC2)cc1 [TOLAZAMIDE] | Compound metabolized |
| CN(C)C(=O)C(CCN1CCC(O)(c2ccc(Cl)cc2)CC1)(c1ccccc1)c1ccccc1 [LOPERAMIDE] | Compound metabolized |

details: human gut metagenome, 24 h, 2 µM; remark: another data set of the same source

| SMILES | Bacterial Biotransformation |
| --- | --- |
| Cc1ccc(S(=O)(=O)NC(=O)NN2CCCCCC2)cc1 [TOLAZAMIDE] | Compound metabolized |
| CN(C)C(=O)C(CCN1CCC(O)(c2ccc(Cl)cc2)CC1)(c1ccccc1)c1ccccc1 [LOPERAMIDE] | Compound metabolized |

details: human gut metagenome, 24 h, 2 µM; remark: another data set of the same source

| SMILES | Bacterial Biotransformation |
| --- | --- |
| Cc1ccc(S(=O)(=O)NC(=O)NN2CCCCCC2)cc1 [TOLAZAMIDE] | Compound metabolized |
| CN(C)C(=O)C(CCN1CCC(O)(c2ccc(Cl)cc2)CC1)(c1ccccc1)c1ccccc1 [LOPERAMIDE] | Compound metabolized |

details: human gut metagenome, 24 h, 2 µM; remark: another data set of the same source

| SMILES | Bacterial Biotransformation |
| --- | --- |
| Cc1ccc(S(=O)(=O)NC(=O)NN2CCCCCC2)cc1 [TOLAZAMIDE] | Compound metabolized |
| CN(C)C(=O)C(CCN1CCC(O)(c2ccc(Cl)cc2)CC1)(c1ccccc1)c1ccccc1 [LOPERAMIDE] | Compound metabolized |

details: human gut metagenome, 24 h, 2 µM; remark: another data set of the same source

| SMILES | Bacterial Biotransformation |
| --- | --- |
| Cc1ccc(S(=O)(=O)NC(=O)NN2CCCCCC2)cc1 [TOLAZAMIDE] | Compound metabolized |
| CN(C)C(=O)C(CCN1CCC(O)(c2ccc(Cl)cc2)CC1)(c1ccccc1)c1ccccc1 [LOPERAMIDE] | Compound metabolized |

details: human gut metagenome, 24 h, 2 µM; remark: another data set of the same source

| SMILES | Bacterial Biotransformation |
| --- | --- |
| Cc1ccc(S(=O)(=O)NC(=O)NN2CCCCCC2)cc1 [TOLAZAMIDE] | Compound metabolized |
| CN(C)C(=O)C(CCN1CCC(O)(c2ccc(Cl)cc2)CC1)(c1ccccc1)c1ccccc1 [LOPERAMIDE] | Compound metabolized |

details: human gut metagenome, 24 h, 2 µM; remark: another data set of the same source

| SMILES | Bacterial Biotransformation |
| --- | --- |
| Cc1ccc(S(=O)(=O)NC(=O)NN2CCCCCC2)cc1 [TOLAZAMIDE] | Compound metabolized |
| CN(C)C(=O)C(CCN1CCC(O)(c2ccc(Cl)cc2)CC1)(c1ccccc1)c1ccccc1 [LOPERAMIDE] | Compound metabolized |

details: human gut metagenome, 24 h, 2 µM; remark: another data set of the same source

| SMILES | Bacterial Biotransformation |
| --- | --- |
| Cc1ccc(S(=O)(=O)NC(=O)NN2CCCCCC2)cc1 [TOLAZAMIDE] | Compound metabolized |
| CN(C)C(=O)C(CCN1CCC(O)(c2ccc(Cl)cc2)CC1)(c1ccccc1)c1ccccc1 [LOPERAMIDE] | Compound metabolized |

details: human gut metagenome, 24 h, 2 µM; remark: another data set of the same source

| SMILES | Bacterial Biotransformation |
| --- | --- |
| Cc1ccc(S(=O)(=O)NC(=O)NN2CCCCCC2)cc1 [TOLAZAMIDE] | Compound metabolized |
| CN(C)C(=O)C(CCN1CCC(O)(c2ccc(Cl)cc2)CC1)(c1ccccc1)c1ccccc1 [LOPERAMIDE] | Compound metabolized |
